Source: US11766434B2, “Pyrimidinone derivatives as CDC7 inhibitors” (Cancer Research Technology Limited, priority 2016, dated 2023)

Key:
Cdc7/Dbf4 = Cdc7/Dbf4 (Homo sapiens, UniProt O00311); experiment: Cdc7 biochemical assay Method 2: Cdc7/Dbf4 Enzyme TR-FRET Assay measuring pS40MCM2; details: pS40 MCM2 peptide, 1 μM ATP, 25° C., 120 minutes, read-out: Biochemical Method 2 (pIC50) (converted)
Method: This protocol describes a method for assaying a compounds' ability to inhibit Cdc7 activity by measuring pS40MCM2 levels in a Cdc7/Dbf4 Enzyme TR-FRET Assay.
2.5 nM Cdc7/Dbf4 was incubated with 100 nM of biotin-labelled peptide 35-TDALTS(pS)PGRDLP in the presence of 1 μM ATP at 25° C. for 120 minutes. The phosphorylation of the peptide was detected using TR-FRET. Anti-Mcm2 (pS40) antibody, Terbium anti-rabbit secondary antibody and Streptavidin-Alexa Fluor488 form the detection system.

Cdc7 = Cdc7 (Homo sapiens, UniProt O00311); experiment: Cdc7 cell pharmacodynamics assay Method 2: pS40MCM2 levels in HCT116 cells; format: cell-based; set-up: endogenous in cells; details: 18 hours treatment, read-out: Biomarker Method 2 (pEC50) (converted)
Source text: This protocol describes a method to investigate the inhibition of Cdc7 activity by measuring pS40MCM2 levels in cells, after treatment with compounds.
• HCT116 cells (ATCC, #CCL-247) • McCoys 5A with L-glutamine (Cellgro, #10-050-CV) • 10% FCS (Cellgro, #35-010-CV) • D-PBS without CaCl2 and MgCl2 (Cellgro, #21-031-CV) • Trypsin/EDTA (Cellgro, #25-052-CL) • BSA (Calbiochem, 126593) • Cell Extraction Buffer (Invitrogen FNN0011) • Protease inhibitor cocktail (Sigma P-2714) • PMSF 0.3M stock in DMSO (Sigma P7626) • Antibody—rabbit pMCM2 Ser40 (Abeam, AB133243) • Antibody—goat MCM2 (Bethyl #A300-122A) • Antibody—goat Anti Rabbit IgG HRP (Thermo, 31462) • SuperSignal ELISA Pico Chemiluminescent Substrate (Perbio Science UK Ltd 37069) • 10×PBS (Growcells, MRGF-6236) • Triton X100 (Sigma, P-T8787) • DMSO (Fisher, D128-1) • 2-Propanol (J. T. Baker, 9095-03) Method • Seed 1×10^6 HCT116 cells into each of two 175 cm^2 flask containing 30 mL Cell Growth Media and incubate at 37° C., 5% CO2 for 3 days. • Harvest the cells from one T175 cm^2 flask and count. • Dilute with Cell Growth Media to a cell density of 2×10^5. Dispense 100 μL to each well (20,000 HCT116 cells/well) of TC treated 96-well plate(s). • Allow cells to settle overnight in incubator set at 37° C. and 5% CO2. • Cell treatment: Transfer 0.25 μL/well from the compound plate to the wells of the cell plate(s). This is a 1:400 dilution of compound in the assay. • Once all cells are treated place the cells back to the incubator and incubate for 18 hours. • Dilute the capture antibody (total MCM2 #A300-122A) 1 in 250 in the required volume of PBS (5 mL per assay plate, plus 5 mL for dead volume) and add 50 μL to each well of a Hybond plate except wells A12 & B12. Seal the plate and incubate at room temperature fora minimum of 2 hours. • Defrost aliquot of Invitrogen Cell Extraction Buffer (FNN0011) on ice and supplement with appropriate volume of both Sigma protease inhibitor cocktail (P-2714) and PMSF (final cone 1 mM from a 1 M stock in DMSO). • After the 6 hour or 18 hour cell treatment time, tap out the media from the assay plates and place them in the −70° C. freezer for at least 5 minutes. • Flick out the remaining liquid in the previously prepared capture Ab plate(s) and add 200 μL 2% BSA per well. Incubate for 1 hour at room temperature. • Remove plates from freezer and add 20 μL of ice cold complete lysis buffer. Incubate cells for 30 minutes at 4° C. • Add 30 μL per well 2% BSA • At the end of the 1 hour incubation, wash the Capture/ELISA plate(s) with Wash Buffer on the BioTek plate washer. • Transfer 40 μL per well of the lysis plate(s) to the same wells in the Capture/ELISA plate. Incubate cells overnight at 4° C. • At the end of the overnight incubation, wash the ELISA plate(s) with Wash Buffer on BioTek plate washer. • Prepare Detection Antibody Buffer and dispense 50 μL to all wells of ELISA plate(s) except wells G1 & H1. Cover plate and incubate at room temperature for 2 hours with gentle shaking. • At the end of the 2 hour incubation, wash the ELISA plate(s) with Wash Buffer on the BioTek plate washer. • Prepare the Conjugated Antibody Buffer and dispense 50 μL to all wells of ELISA plate(s). • Cover the plate and incubate at room temperature for 1 hour with gentle shaking. • At the end of the 1 hour incubation, wash the ELISA plate(s) with Wash Buffer on the BioTek plate washer. • Prepare Substrate Buffer and dispense 50 μL to all wells of ELISA plate(s). • Incubate for a minimum of 10 minutes and read plates on the EnVision 2100 Multilabel Reader (Mirror: Luminescence (404) & Luminescence 700 (212); Measurement Height: 6.5 mm; Measurement Time: 0.2 s). Method 3

Sequence of Cdc7 (O00311 whole entry): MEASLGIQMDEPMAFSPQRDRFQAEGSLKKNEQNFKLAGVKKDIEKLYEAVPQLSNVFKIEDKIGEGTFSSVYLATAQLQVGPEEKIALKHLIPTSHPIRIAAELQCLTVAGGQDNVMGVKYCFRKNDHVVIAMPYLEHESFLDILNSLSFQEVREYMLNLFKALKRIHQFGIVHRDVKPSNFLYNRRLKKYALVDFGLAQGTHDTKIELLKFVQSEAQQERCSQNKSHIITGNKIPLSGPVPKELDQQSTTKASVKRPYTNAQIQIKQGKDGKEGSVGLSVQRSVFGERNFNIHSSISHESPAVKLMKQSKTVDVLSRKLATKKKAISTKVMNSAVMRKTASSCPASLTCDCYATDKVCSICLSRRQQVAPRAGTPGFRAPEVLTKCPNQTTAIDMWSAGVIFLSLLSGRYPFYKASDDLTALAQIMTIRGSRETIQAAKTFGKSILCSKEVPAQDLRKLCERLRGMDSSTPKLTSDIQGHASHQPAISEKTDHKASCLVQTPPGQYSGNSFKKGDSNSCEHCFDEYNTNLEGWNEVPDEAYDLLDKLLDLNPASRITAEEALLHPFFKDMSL
Sequence of Cdc7 (Q9UBU7 whole entry partner): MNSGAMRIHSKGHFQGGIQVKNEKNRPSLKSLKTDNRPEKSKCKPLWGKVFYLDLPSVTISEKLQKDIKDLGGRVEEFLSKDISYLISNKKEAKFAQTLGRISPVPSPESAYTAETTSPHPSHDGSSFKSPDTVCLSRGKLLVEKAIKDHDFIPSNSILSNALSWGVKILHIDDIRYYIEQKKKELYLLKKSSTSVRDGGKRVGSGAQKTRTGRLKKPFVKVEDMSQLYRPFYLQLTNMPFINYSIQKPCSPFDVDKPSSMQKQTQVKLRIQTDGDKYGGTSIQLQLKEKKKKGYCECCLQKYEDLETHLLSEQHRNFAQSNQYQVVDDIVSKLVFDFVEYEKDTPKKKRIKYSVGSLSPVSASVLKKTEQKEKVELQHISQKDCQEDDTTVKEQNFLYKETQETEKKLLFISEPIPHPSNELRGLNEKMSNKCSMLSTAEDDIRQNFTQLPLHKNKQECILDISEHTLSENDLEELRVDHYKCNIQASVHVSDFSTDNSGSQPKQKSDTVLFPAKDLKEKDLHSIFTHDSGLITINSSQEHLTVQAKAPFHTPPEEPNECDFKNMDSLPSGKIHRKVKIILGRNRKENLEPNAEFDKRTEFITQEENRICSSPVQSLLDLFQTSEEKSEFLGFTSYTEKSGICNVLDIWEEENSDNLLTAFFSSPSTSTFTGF
Sequence of Cdc7/Dbf4 (O00311 whole entry): as the sequence (O00311 whole entry) above
Sequence of Cdc7/Dbf4 (Q9UBU7 whole entry partner): as the sequence (Q9UBU7 whole entry partner) above

Row | Structure (SMILES) | IC50 (Cdc7/Dbf4) | EC50 (Cdc7)
1 | C[C@@H]1CNCCN1c1nc(-c2cn[nH]c2C(F)(F)F)[nH]c(=O)c1Cl [Compound 44, 5-chloro-4-[(2R)-2-methylpiperazin-1-yl]-2-[5-(trifluoromethyl)-1H-pyrazol-4-yl]-1H-pyrimidin-6-one] | 2.69 nM | 25.1 nM
2 | O=c1[nH]c(-c2cn[nH]c2C(F)(F)F)nc(C2CCOCC2)c1Cl [Compound 17, 5-chloro-4-tetrahydropyran-4-yl-2-[5-(trifluoromethyl)-1H-pyrazol-4-yl]-1H-pyrimidin-6-one] | 1.45 nM | 372 nM
3 | C[C@@H]1CNCCN1c1nc(-c2cn[nH]c2Cl)[nH]c(=O)c1Cl [Compound 43, 5-chloro-2-(5-chloro-1H-pyrazol-4-yl)-4-[(2R)-2-methylpiperazin-1-yl]-1H-pyrimidin-6-one] | 1.82 nM | 38 nM
4 | C[C@@H]1COCCN1c1nc(-c2cn[nH]c2C(F)(F)F)[nH]c(=O)c1Cl [Compound 41, 5-chloro-4-[(3R)-3-methylmorpholin-4-yl]-2-[5-(trifluoromethyl)-1H-pyrazol-4-yl]-1H-pyrimidin-6-one] | 0.832 nM | 7.24 nM
5 | Cc1ncsc1-c1nc(C2CCOCC2)c(Cl)c(=O)[nH]1 [Compound 6, 5-chloro-2-(4-methylthiazol-5-yl)-4-tetrahydropyran-4-yl-1H-pyrimidin-6-one] | 1.95 nM | –
